The record followed here is PMC11873646 (Acta Pharmaceutica Sinica. B, 2024).

Assay [1] concerns the target platelet P2Y12 receptor (Rattus norvegicus, UniProt Q9EPX4).
In assay [2] the test system is ADP-induced platelet aggregation.
[3] abbreviates: single oral dose 10 mg/kg, 4 h after administration, P < 0.05.

Like-named read-outs stand apart in the source and are kept apart here.

Sequence of platelet P2Y12 receptor (Q9EPX4 whole entry): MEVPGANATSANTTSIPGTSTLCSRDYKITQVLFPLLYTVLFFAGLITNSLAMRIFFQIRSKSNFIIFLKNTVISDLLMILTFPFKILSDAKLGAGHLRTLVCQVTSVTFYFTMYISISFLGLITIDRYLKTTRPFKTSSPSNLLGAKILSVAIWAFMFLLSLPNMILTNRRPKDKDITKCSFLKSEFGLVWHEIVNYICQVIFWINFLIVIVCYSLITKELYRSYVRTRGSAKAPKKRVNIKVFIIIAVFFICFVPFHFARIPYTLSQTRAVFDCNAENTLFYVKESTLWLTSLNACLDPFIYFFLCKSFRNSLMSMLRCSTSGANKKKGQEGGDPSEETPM

Consider `COC(=O)[C@H](c1ccccc1Cl)N1CCc2sccc2C1` [Clop, Clopidogrel], for which, in assay [1] (3 mg/kg oral for 7 consecutive days, male SD rats, P < 0.01), the “change in P2Y12 occupancy between D1H4 and D7H4” value is “gradual and significant increase”. The “decrease in P2Y12 occupancy in T2DM rats vs control rats” value was 50.7% in assay [1] (single oral dose 10 mg/kg, 1 h post-administration, P < 0.05) and 64.4% in assay [1] (single oral dose 10 mg/kg, 4 h post-administration, P < 0.001). Also, in assay [1] (single oral dose 10 mg/kg, male SD rats, post-administration), the “time of maximal P2Y12 occupancy” value came to 4 h. Also, the “mean IPA” value in assay [2] (3 mg/kg repeated oral dose group, male SD rats, 5 umol/L ADP) is listed as 14.0 ± 12.5%; in assay [2] (30 mg/kg repeated oral dose group, male SD rats, 5 umol/L ADP), 59.6 ± 10.1%. For the same compound, the “time for platelet activity to recover after cessation of administration” value in assay [2] (3, 10 and 30 mg/kg for 7 days, all three dose groups, male SD rats) is “five”. In addition, in assay [2] (co-administration 10 mg/kg Clop + 10 mg/kg omeprazole, after 7 days, P < 0.01), the “decrease in IPA vs Clop alone” value was 57.3%. Moreover, the “increase in MPA vs Clop alone” value in assay [2] (co-administration 10 mg/kg Clop + 10 mg/kg omeprazole, after 7 days, P < 0.05) stood at 21.1%. For the same compound, in assay [2] (setting [3]), the “decrease in IPA in T2DM rats vs control rats” value worked out at 48.3%. Moreover, the “increase in MPA in T2DM rats vs control rats” value in assay [2] (setting [3]) is recorded as 33.2%. Moreover, the “time of peak maximal inhibitory effect on platelet aggregation (MPA, IPA)” value in assay [2] (single oral dose 10 mg/kg, male SD rats, post-administration, 5 umol/L ADP) is recorded as 4 h.
